Data as given in patent US20250179028A1, “ACRYLAMIDE COMPOUNDS” (NRG THERAPEUTICS LTD, priority 2022, published 2025).
Converted amounts (≈) assume the structure as drawn. Where two headings read alike, the source gives them in different places.

How the values were obtained:
mPTP = mPTP activity (Ca2+ retention) assay in isolated rat liver mitochondria; format: biochemical; conditions: for mPTP Rat liver pIC50: isolated rat liver mitochondria, average value from multiple experiments (n ≥ 2)
From the text: Pharmacological inhibition or modulation of the mPTP can be measured in well characterised ‘Ca^2+ retention’ assays performed in isolated mitochondria. In vitro isolated mitochondria rapidly sequester exogenous Ca^2+ until the intramitochondrial Ca^2+ concentration reaches the threshold for mPTP activation. Once the pore is activated, mitochondrial integrity is compromised and the stored Ca^2+ is released. The distribution of Ca^2+ between extra- and intra-mitochondrial compartments can be measured in real time with the use of membrane-impermeant Ca^2+ sensitive fluorescent dyes. Depending on the configuration of the assay, inhibition or modulation of the mPTP either delays the opening of the pore or increases the concentration of Ca^2+ required to induce mPTP opening.
MPTP activity was measured in mitochondria freshly isolated from female Sprague Dawley (250 to 300 gram) rat livers using the following method. Cervical dislocation was performed on the rat. The liver was then perfused in-situ with ˜40 ml cold Dulbecco's Phosphate Buffered Saline (DPBS) prior to dissection and transferred into 30 ml Isolation Buffer (250 mM Sucrose, 10 mM KCl, 1 mM EGTA, 1 mM EDTA, 25 mM HEPES, adjusted to pH 7.5 with 1 M NaOH). Each lobe of the liver was then removed from the buffer, minced using tweezers and a scalpel into ˜5 mm pieces then transferred into a 50 ml Potterton dounce homogenization tube on ice containing 30 ml ice-cold centrifugation buffer (300 mM Trehalose, 25 mM HEPES, 1 mM EGTA, 1 mM EDTA, 10 mM KCl, adjusted to pH 7.5 with 1 M NaOH and supplemented with 0.1% bovine serum albumin (BSA) and complete protease inhibitor cocktail (one tablet of inhibitor per 50 mls of buffer). Homogenisation was carried out using a teflon pestle at 1800 rpm. The slurry was centrifuged at 800 g for 10 min at 4° C., then the supernatant centrifuged at 10,000 g for 10 min. The pellet was washed once with FLIPR assay buffer (75 mM Mannitol, 25 mM Sucrose, 5 mM Potassium Phosphate Monobasic, 20 mM Tris base, 100 mM KCl, 0.1% BSA adjusted to pH 7.4 with 5M HCl) centrifuged again, then resuspended in FLIPR assay buffer to a concentration of 8.8 mg/ml protein.
Tested compounds (10 mM stock in DMSO) were serially diluted in DMSO in half log steps to generate 10 test concentrations (final concentrations in assay 30 μM to 1 nM). An intermediate dilution of 5 μl DMSO samples into 247 μl FLIPR assay buffer was carried out prior to transfer of 5 μl into duplicate wells of a 384 well polypropylene assay plate. Control wells were 0.5% (v/v) DMSO and 5 μM cyclosporin A.
A stock mitochondria/Fluo5N assay solution was prepared in 5.6 ml FLIPR assay buffer (at RT) supplemented with succinate disodium salt (10 mM), rotenone (1 μM), Fluo5N pentapotassium salt (2 μM) and 1 ml mitochondria suspension, then transferred (15 μl) into the assay plate containing test compounds and incubated for 10 min at RT. Assay plates were then transferred to a FLIPR Tetra plate reader (Molecular Devices). Dye fluorescence was then measured every 3 sec for a total of 10 min. After 12 sec, a 2.5 μl bolus of CaCl2 (75 μM) was added from a source plate containing 675 μM CaCl2 in FLIPR assay buffer. IC50 values for tested compounds were calculated using the fluorescence value collected at the 10 min timepoint with % inhibition calculated using the DMSO control and cyclosporin A values as […] respectively.

CYP2D6 = CYP2D6 (Homo sapiens (Human), UniProt P10635); assay: Cytochrome P450 CYP2D6 inhibition in human liver microsomes; format: in vitro ADME; conditions: human liver microsomes, average value from two experiments; for inhibition at 20 min, 1 µM: probe dextromethorphan 2 µM (dextrorphan formation), 1 uM test compound, negative values = no effective inhibition
Description: Studies to assess tested compound mediated inhibition of cytochrome P450 enzyme isoform CYP2D6 were performed using human liver microsomes (BD Gentest) using either a single concentration (1 μM) of test compound or concentration response (0.1, 0.3, 1, 3, 10 and 30 μM) to derive an IC50. Tested compound solutions were prepared from 10 mM stocks in DMSO and diluted to 200 μM in DMSO. Reactions were prepared in a 96 deep well plate by combining 1 μl test compound with 179 μl reaction mixture (100 mM phosphate buffered saline (PBS), 0.2 mg/mL microsomes and 2 μM Dextromethorphan prepared from stocks as detailed below).
The positive control inhibitor, quinidine, was used at a final concentration of 0.5 μM when used at a single concentration. The final concentrations of quinidine used to derive an IC50 were 0, 0.1, 0.3, 1, 3, 10 and 30 μM. Plates were warmed at 37° C. for 15 min before starting reactions with 20 μl 10 mM NADPH solution in PBS and incubated for 20 min at 37° C. The assay is performed in duplicate. Reactions were quenched with 200 μl cold acetonitrile containing internal standards (200 nM labetalol, 200 nM alprazolam and 100 nM tolbutamide). The plate was centrifuged at 4000 rpm for 30 minutes, placed on ice for 20 minutes and then centrifuged at 4000 rpm for 30 minutes again to precipitate protein. 100 μL of the supernatant was transferred to a new plate and diluted with 100 μL pure water before being analysed using UPLC/MS/MS. The products of the transformation for dextromethorphan to dextrorphan was monitored by UPLC-MS/MS. The inhibition of CYP2D6 in human liver microsomes was measured as the percentage decrease in the activity of dextrorphan formation compared to non-inhibited controls (=100% activity). The IC50 value was calculated (test compound concentration which produces 50% inhibition) by using Excel Xlfit.

[1] = PBS and FaSSIF solubility; format: physicochemical; conditions: kinetic from dmso stock
Description: Test compounds were prepared as 10 mM stocks in DMSO and 15 μl samples transferred in duplicate into 1.5 mL glass flat bottom vials (BioTech Solutions). Fasted state simulated intestinal fluid (FaSSIF) or PBS (pH 7.4) was added to each vial to final volume of 500 μl. One PTFE encapsulated stir stick (V&P Scientific) was placed in each vial before sealing with PTFE/SIL plugs (BioTech Solutions). Vials were shaken at 1100 rpm for 2 hr at 25° C. Samples were then filtered through MultiScreen Solvinert filter plates (Millipore) via vacuum filtration. Aliquots of filtrate (5 μl) plus 5 μl DMSO were diluted in 490 μl 50% acetonitrile in water containing internal standard. The filtrate was analysed and quantified against a standard of known concentration using LC-MS/MS. Solubility values of the test compound and control compound were calculated as follows: […]

[2] = Hepatocyte clearance assay, rat; format: in vitro ADME; conditions: average value from two experiments, read-out: Rat heps Clint
Description: (§1) In vitro clearance studies were performed in primary rat and human hepatocytes (BiolVT). Vials of cryopreserved rat or human hepatocytes were thawed in a 37° C. water bath for 2 min. Cells were transferred into thawing medium (Williams' Medium E containing 30% Percoll, 1×GlutaMAX-1, 15 mM HEPES, 5% fetal bovine serum (FBS), 4 μg/ml insulin, 1 μM dexamethasone), centrifuged at 100 g for 10 min then resuspended in culture medium (Leibovitz's L-15 Medium) at a concentration of 0.5×10^6 viable cells/mL (number of viable cells assessed using AO/PI staining). Hepatocytes (198 μL) were transferred into wells of a 96-well non-coated plate and placed in a 37° C. incubator for 10 min. Test compound solutions were prepared from 10 mM stocks in DMSO, diluted to 100 μM in 50% (v/v in water) acetonitrile. Test compound samples (2 μl) were added to each well of hepatocytes and incubated at 37° C. Samples (25 μl) were collected at t=0, 15, 30, […] and 120 min, mixed with 6 volumes (150 μl) of acetonitrile containing internal standard (100 nM alprazolam, 200 nM caffeine and 100 nM tolbutamide), vortexed for 5 min and centrifuged for 45 min at 3220 g. An aliquot of supernatant (100 μL) was diluted with 100 μL ultra-pure water, and the mixture was used for LC/MS/MS analysis. All incubations were performed in duplicate. Peak areas were determined from extracted ion chromatograms. The slope value, k, was determined by linear regression of the natural logarithm of the remaining percentage of the parent drug vs. incubation time curve. The in vitro half-life (in vitro t½) was determined from the slope value: in vitro t½=0.693/k. Conversion of the in vitro t½ (in min) into the in vitro intrinsic clearance (in vitro CLint, in μL/min/1×10^6 cells) was done using the following equation (mean of duplicate determinations):
(§2) [formula] • V=incubation volume (0.2 mL) • N=number of hepatocytes per well (0.1×10^6 cells).

[3] = Hepatocyte clearance assay, human; format: in vitro ADME; conditions: average value from two experiments, read-out: Human heps Clint
Description: as §1, §2

[4] = fasted state simulated intestinal fluid (FaSSIF), fassif, Fasted state simulated intestinal fluid, 2 hr at 25° C., read-out: Solubility FaSSIF
[5] = cryopreserved primary rat hepatocytes
[6] = cryopreserved primary human hepatocytes
[7] = cryopreserved primary hepatocytes
[8] = aqueous buffer, PBS pH 7.4, 2 hr at 25° C., read-out: Solubility PBS (pH 7.4)

Sequence of CYP2D6 (P10635 whole entry, canonical isoform): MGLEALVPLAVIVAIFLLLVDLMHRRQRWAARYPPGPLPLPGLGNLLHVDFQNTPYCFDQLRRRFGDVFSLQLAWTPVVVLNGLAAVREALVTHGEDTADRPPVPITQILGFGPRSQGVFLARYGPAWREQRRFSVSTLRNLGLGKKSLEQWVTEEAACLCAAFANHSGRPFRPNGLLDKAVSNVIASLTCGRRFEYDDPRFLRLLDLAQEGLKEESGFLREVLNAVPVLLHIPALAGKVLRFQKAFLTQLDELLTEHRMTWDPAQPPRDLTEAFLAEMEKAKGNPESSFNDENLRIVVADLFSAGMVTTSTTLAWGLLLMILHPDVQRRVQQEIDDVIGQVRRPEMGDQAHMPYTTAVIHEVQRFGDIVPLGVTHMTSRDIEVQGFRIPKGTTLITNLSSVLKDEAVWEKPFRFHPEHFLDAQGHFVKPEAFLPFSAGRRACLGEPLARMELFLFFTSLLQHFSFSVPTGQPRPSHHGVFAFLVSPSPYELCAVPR

| Compound | mPTP Rat liver pIC50 (mPTP) | inhibition at 20 min, 1 µM (CYP2D6) | solubility at 2 h [1, 4] | hepatocyte CLint at 1 µM [2, 5] | hepatocyte CLint at 1 µM [3, 6] | IC50 (CYP2D6) | hepatocyte CLint at 1 µM [3, 7] | hepatocyte CLint at 1 µM [2, 7] | solubility at 2 h [1, 8] | activity in the rat liver mitochondria assay (in words) (mPTP) |
| --- | --- | --- | --- | --- | --- | --- | --- | --- | --- | --- |
| Cc1ccc(F)c(C)c1NC(=O)/C=C/c1ccc2c(c1)NC(=O)C2 [Example 20, (E)-N-(3-fluoro-2,6-dimethylphenyl)-3-(2-oxoindolin-6-yl)acrylamide] | 6.8 | -1.76% | 210 µM (≈ 68.3 µg/mL) | 11.9 µL/min/1e6 cells | 6.08 µL/min/1e6 cells | – | – | – | – | – |
| N#Cc1n[nH]c2cc(/C=C/C(=O)NC3CCc4ccccc43)ccc12 (centres unmarked) [Example 26, (E)-3-(3-cyano-1H-indazol-6-yl)-N-(2,3-dihydro-1H-inden-1-yl)acrylamide] | 7.2 | 3.49% | – | 87.5 µL/min/1e6 cells | – | 8.8 µM | – | – | – | – |
| O=C(/C=C/c1cc2[nH]nnc2cc1F)NC1CCc2ccccc21 (centres unmarked) [Example 27, (E)-N-(2,3-dihydro-1H-inden-1-yl)-3-(5-fluoro-1H-benzo[d][1,2,3]triazol-6-yl) acrylamide] | – | 14.3% | 43.1 µM (≈ 13.9 µg/mL) | – | – | – | 9.6 µL/min/1e6 cells | – | – | – |
| O=C(/C=C/c1ccc2c(C(F)(F)F)n[nH]c2c1)NC1CCc2ccccc21 (centres unmarked) [Example 28, (E)-N-(2,3-dihydro-1H-inden-1-yl)-3-(3-(trifluoromethyl)-1H-indazol-6-yl) acrylamide] | – | 8.27% | – | – | – | – | – | 73.6 µL/min/1e6 cells | – | – |
| Cc1cccc(C)c1NC(=O)/C=C/c1ccc2c(c1)[nH]c(=O)n2C [Example 29, (E)-N-(2,6-dimethylphenyl)-3-(1-methyl-2-oxo-2,3-dihydro-1H-benzo[d]imidazol-5-yl)acrylamide] | 6.9 | -3.03% | 69.8 µM (≈ 22.4 µg/mL) | 16.1 µL/min/1e6 cells | – | – | – | – | 33.5 µM (≈ 10.8 µg/mL) | – |
| Cc1c(F)cc(F)c(C)c1NC(=O)/C=C/c1ccc2c(c1)NC(=O)C2 [Example 35, (E)-N-(3,5-difluoro-2,6-dimethylphenyl)-3-(2-oxoindolin-6-yl)acrylamide] | 7.2 | 2.83% | 258 µM (≈ 88.4 µg/mL) | – | 8.33 µL/min/1e6 cells | – | – | – | – | – |
| Cc1cc(F)c(F)c(C)c1NC(=O)/C=C/c1ccc2c(c1)NC(=O)C2 [Example 36, (E)-N-(3,4-difluoro-2,6-dimethylphenyl)-3-(2-oxoindolin-6-yl)acrylamide] | 7.2 | -2.57% | – | 9.41 µL/min/1e6 cells | 7.26 µL/min/1e6 cells | – | – | – | 65.9 µM (≈ 22.6 µg/mL) | – |
| Cc1c(F)cccc1NC(=O)/C=C/c1ccc2c(C)n[nH]c2c1 [Example 37, (E)-N-(3-fluoro-2-methylphenyl)-3-(3-methyl-1H-indazol-6-yl)acrylamide] | 8.1 | 5.04% | 2.95 µM (≈ 0.913 µg/mL) | 87.6 µL/min/1e6 cells | 18.9 µL/min/1e6 cells | – | – | – | – | highest activity |
| CO[C@H]1Cc2ccccc2[C@@H]1NC(=O)/C=C/c1ccc2c(Cl)n[nH]c2c1 [Example 72, (E)-3-(3-chloro-1H-indazol-6-yl)-N-((1S,2S)-2-methoxy-2,3-dihydro-1H-inden-1-yl)acrylamide] | – | 9.98% | 24.4 µM (≈ 8.98 µg/mL) | – | – | – | 11.3 µL/min/1e6 cells | 77 µL/min/1e6 cells | – | – |
| COCc1c(F)cncc1NC(=O)/C=C/c1ccc2c(C)n[nH]c2c1 [Example 114, (2E)-N-[5-fluoro-4-(methoxymethyl)pyridin-3-yl]-3-(3-methyl-1H-indazol-6-yl)prop-2-enamide] | – | – | 19 µM (≈ 6.47 µg/mL) | – | – | – | 3 µL/min/1e6 cells | 76 µL/min/1e6 cells | – | – |
